Test results published in patent US8058510B2, “Method and means to modulate programmed cell death in eukaryotic cells” (Bayer Bioscience N.V., priority 1998, dated 2011).
“Also recorded” adds a separate entry of the source.

B1: APP: NAP protein of Arabidopsis thaliana (SEQ ID No 6), non-conventional PARP, expressed in yeast (protein, listed as Arabidopsis thaliana)
chain: MANKLKVDELRLKLAERGLSTTGVKAVLVERLEEAIAEDTKKEESKSKRKRNSSNDTYESNKLIAIGEFRGMIVKELREEAIKRGLDTTGTKKDLLERLCNDANNVSNAPVKSSNGTDEAEDDNNGFEEEKKEEKIVTATKKGAAVLDQWIPDEIKSQYHVLQRGDDVYDAILNQTNVRDNNNKFFVLQVLESDSKKTYMVYTRWGRVGVKGQSKLDGPYDSWDRAIEIFTNKFNDKTKNYWSDRKEFIPHPKSYTWLEMDYGKEENDSPVNNDIPSSSSEVKPEQSKLDTRVAKFISLICNVSMMAQHMMEIGYNANKLPLGKISKSTISKGYEVLKRISEVIDRYDRTRLEELSGEFYTVIPHDFGFKKMSQFVIDTPQKLKQKIEMVEALGEIELATKLLSVDPGLQDDPLYYHYQQLNCGLTPVGNDSEEFSMVANYMENTHAKTHSGYTVEIAQLFRASRAVEADRFQQFSSSKNRMLLWHGSRLTNWAGILSQGLRIAPPEAPVTGYMFGKGVYFADMFSKSANYCYANTGANDGVLLLCEVALGDMNELLYSDYNADNLPPGKLSTKGVGKTAPNPSEAQTLEDGVVVPLGKPVERSCSKGMLLYNEYIVYNVEQIKMRYVIQVKFNYKH

What was measured:
APP [1] = molecular target: T1, APP (Arabidopsis thaliana, UniProt Q11207); assay: Poly(ADP-ribose) polymerase activity assay in total protein extracts of yeast expressing APP
[2] = tested on: differentiating cells of Zinnia or of Helianthus tuberosum; settings: literature; cited from earlier work
APP [3] = molecular target: T1, APP; assay: In situ detection of poly(ADP-ribose) polymer with 10H monoclonal antibody in yeast spheroplasts expressing APP; type: cell-based; design: The full-length app cDNA was placed in pYeDP1/8-2 under the control of a galactose-inducible yeast promoter; expressed in transfected cells; host or cells: Saccharomyces cerevisiae strain DY transformed with pV8SPA, grown on galactose; settings: DY(pV8SPA) cells grown on galactose in the presence of the inhibitor
Protocol: In situ antigen localization in yeast cells was carried out as described (Harlow and Lane, 1988). For the localization of the APP protein in yeast spheroplasts, anti-APP serum was diluted 1:3,000 to 1:5,000 in Tris-buffered saline-BSA buffer. 10H monoclonal antibody, which specifically recognizes poly(ADP-ribose) polymer (Ikajima et al., 1990) was used in a 1:100 dilution in PBS buffer. The mouse antibody were detected with the sheep anti-mouse IgG F(ab′)2 fragment conjugated to fluorescein isothiocyanate (FITC) (Sigma) at a dilution of 1:200. Rabbit IgG was detected with CY-3 conjugated sheep anti-rabbit IgG sheep F(ab)2 fragment (Sigma), at a dilution of 1:200. For the visualization of DNA, slides were incubated for 1 min in PBS with 10 μg ml^−1 of 4′,6-diamidino-2-phenylindole (DAPI; Sigma). Fluorescence imaging was performed on an Axioskop epifluorescence microscope (Zeiss, Jena, Germany). For observation of FITC and CY-3 fluorochromes, 23 and 15 filter cubes were used, respectively. Cells were photographed with Fuji Color-100 super plus film.
In addition, we tested whether APP was constitutively active in yeast cells, as has been reported for the human PARP (Collinge and Althaus, 1994). […] A positive yellowish-green fluorescence signal with 10H antibody was localized in the nucleus and was observed only in DY(pV8SPA) cells grown on galactose.

tobacco = settings: Puchta et al., 1995; cited from earlier work
[4] = tested on: Arabidopsis shoots (C24; Columbia); assay: Fitness assay Arabidopsis (TTC-assay); type: in vivo; settings: 2 mM niacinamide in incubation medium, about 20 hours; lines C24 and Columbia

Molecule | synthesis of poly(ADP-ribose) (APP [1]; 3ABA 3 mM in the reaction mix, nucleic acid depleted DY(pV8SPA) extract, FIG. 5B lane 5) | radioactivity incorporated into polymer (APP [1]; yeast strain grown with 3ABA (3 mM) versus without, 3ABA removed from extracts during desalting, FIG. 5A lane 1 vs 2) | development of tracheary elements [2] | positive staining with 10H antibody (poly(ADP-ribose) polymers) in the nucleus (APP [3]) | rates of homologous intrachromosomal recombination (tobacco) | TTC-reducing capacity [4] | radioactivity incorporated into poly(ADP-ribose), 40 μg/ml DNA versus 2 μg/ml DNA (APP [1]; sonicated salmon sperm DNA, phosphor-image scanning, FIG. 5B lanes 4 and 2) [fold]
NC(=O)c1cccc(N)c1 [3ABA, 3-aminobenzamide] | sensitive; also recorded: blocked | More radioactivity was incorporated into polymer | prevent development of tracheary elements | greatly reduced | increased | – | –
NC(=O)c1cccnc1 [nicotinamide] | – | – | prevent development of tracheary elements | greatly reduced | – | higher TTC-reducing capacity | –
O=c1[nH]c2ccccc2c2ccccc12 [6(5H)-phenasthridinone] | – | – | prevent development of tracheary elements | – | – | – | –
B1 | – | – | – | – | – | – | ~6
